Results: BindingDB's records for doi:10.7270/Q2DN43N5 (Burnham Center For Chemical Genomics, 2013)
Where a name gives a salt, the structure may show the parent alone.

Target: T1, Tyrosine-protein phosphatase non-receptor type 22 (Homo sapiens, UniProt Q9Y2R2)
T1 sequence (Q9Y2R2 whole entry): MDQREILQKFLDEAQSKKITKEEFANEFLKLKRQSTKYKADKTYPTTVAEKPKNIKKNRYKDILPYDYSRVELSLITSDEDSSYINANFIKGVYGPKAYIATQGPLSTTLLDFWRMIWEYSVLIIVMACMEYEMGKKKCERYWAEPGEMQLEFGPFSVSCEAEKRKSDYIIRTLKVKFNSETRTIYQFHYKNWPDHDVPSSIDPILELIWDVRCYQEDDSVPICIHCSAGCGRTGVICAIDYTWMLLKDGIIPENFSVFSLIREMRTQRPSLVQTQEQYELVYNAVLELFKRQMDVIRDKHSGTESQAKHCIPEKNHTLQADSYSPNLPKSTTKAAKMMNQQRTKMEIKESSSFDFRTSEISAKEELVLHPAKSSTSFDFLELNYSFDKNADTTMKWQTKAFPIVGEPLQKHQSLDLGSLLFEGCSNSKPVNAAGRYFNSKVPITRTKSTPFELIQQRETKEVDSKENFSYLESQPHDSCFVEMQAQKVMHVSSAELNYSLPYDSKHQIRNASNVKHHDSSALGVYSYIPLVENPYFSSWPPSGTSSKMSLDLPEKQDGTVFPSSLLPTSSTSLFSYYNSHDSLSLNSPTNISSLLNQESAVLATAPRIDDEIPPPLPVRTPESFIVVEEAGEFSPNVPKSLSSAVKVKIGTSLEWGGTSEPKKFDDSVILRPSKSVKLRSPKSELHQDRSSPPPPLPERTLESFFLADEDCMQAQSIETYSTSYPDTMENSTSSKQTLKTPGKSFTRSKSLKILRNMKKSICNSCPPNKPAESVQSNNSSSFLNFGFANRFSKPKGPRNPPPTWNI

IC50 [µM] | SMILES
> 80 | CCc1nc(N)nc(N)c1-c1ccc(Cl)cc1
> 80 | c1ccc(-c2nc(NCc3cccnc3)c3ccccc3n2)cc1
> 80 | CCc1nc(N)nc(N)c1-c1ccc(NCCN)c([N+](=O)[O-])c1
> 80 | CN(C)c1nc(N)nc(/C(C#N)=C/C2CC3C=CC2C3)n1 (configuration not stated)
> 80 | Cc1ccccc1Nc1cc(C)c2c(=O)cccc-2[nH]1
> 80 | Cc1nccc(O)c1Cc1c(Cl)cccc1Cl
> 80 | Cc1cccc(-c2nc(NCCCN3CCOCC3)c3ccccc3n2)c1
> 80 | Fc1ccccc1-c1nc(NCCCN2CCOCC2)c2ccccc2n1 [2-(2-fluorophenyl)-N-(3-morpholin-4-ylpropyl)quinazolin-4-amine]
> 80 | COc1ccc(/N=c2\[nH]c(=O)c3cc([N+](=O)[O-])ccc3s2)cc1 [2-(4-methoxyanilino)-6-nitro-1,3-benzothiazin-4-one]
> 80 | COc1ccccc1CNc1nc(NCc2cnc(C)cn2)c2sccc2n1 [2-N-[(2-methoxyphenyl)methyl]-4-N-[(5-methylpyrazin-2-yl)methyl]thieno[3,2-d]pyrimidine-2,4-diamine]
22.9 | CCOc1cc(CN=Nc2nc(O)c(CC(=O)O)s2)ccc1OCc1ccc(Cl)cc1Cl [2-[2-[(N''E)-N''-[4-(2,4-dichlorobenzyl)oxy-3-ethoxy-benzylidene]hydrazino]-4-keto-2-thiazolin-5-yl]acetic acid]
> 80 | O=C(OCCNc1nc(-c2ccccc2)nc2ccccc12)c1ccncc1 [2-[(2-phenylquinazolin-4-yl)amino]ethyl pyridine-4-carboxylate]
> 80 | Cc1ccc(-c2nc(NC(=O)CSc3cc(C)c4ccccc4n3)ns2)cc1 [2-[(4-methyl-2-quinolyl)thio]-N-[5-(p-tolyl)-1,2,4-thiadiazol-3-yl]acetamide]
> 80 | N=c1c(C(=O)NCc2ccc3c(c2)OCO3)cc2c(=O)n3ccccc3nc2n1Cc1cccnc1 [2-azanylidene-N-(1,3-benzodioxol-5-ylmethyl)-5-oxidanylidene-1-(pyridin-3-ylmethyl)dipyrido[1,2-d:3',4'-f]pyrimidine-3-carboxamide]
> 80 | c1ccc(-c2cc(N3CCCCC3)c3ccccc3n2)cc1 [2-phenyl-4-piperidin-1-ylquinoline]
> 80 | CC(C)OCCCNc1nc(-c2ccccc2)nc2ccccc12 [2-phenyl-N-(3-propan-2-yloxypropyl)-4-quinazolinamine;hydrochloride]
> 80 | Cc1c(CCC(=O)O)c(=O)oc2c(C)c(OCc3ccccc3Cl)ccc12 [3-[7-[(2-chlorophenyl)methoxy]-4,8-dimethyl-2-oxochromen-3-yl]propanoic acid]
> 80 | CCN(c1ccccc1)S(=O)(=O)c1cc(C(=O)O)ccc1C [3-[ethyl(phenyl)sulfamoyl]-4-methyl-benzoic acid]
> 80 | O=C(OCCNc1nc(-c2ccccc2)nc2ccccc12)c1cccnc1 [3-pyridinecarboxylic acid 2-[(2-phenyl-4-quinazolinyl)amino]ethyl ester]

IC50 [µM] | SMILES
> 80 | CNc1nc(NC)c2c[nH]nc2n1 [4-N,6-N-dimethyl-1H-pyrazolo[3,4-d]pyrimidine-4,6-diamine]
> 80 | COCCNc1nc(NCc2cccc(OC)c2OC)c2sccc2n1 [4-N-[(2,3-dimethoxyphenyl)methyl]-2-N-(2-methoxyethyl)thieno[3,2-d]pyrimidine-2,4-diamine]
> 80 | Cc1cc(N2CCC(C)CC2)[nH]c2cccc(=O)c1-2 [4-methyl-2-(4-methyl-1-piperidinyl)-1H-quinolin-5-one]
> 80 | CCc1nc(N)nc(N)c1-c1ccc(Cl)c(N=[N+]=[N-])c1 [5-(3-azido-4-chlorophenyl)-6-ethylpyrimidine-2,4-diamine;ethanesulfonic acid]
> 80 | Cc1nc(N)nc(N)c1-c1ccc([N+](=O)[O-])cc1 [6-methyl-5-(4-nitrophenyl)pyrimidine-2,4-diamine]
> 80 | Cc1cccc2nc(-c3ccccc3)nc(N[C@@H](CO)c3ccccc3)c12 [(2R)-2-[(5-methyl-2-phenylquinazolin-4-yl)amino]-2-phenylethanol]
> 80 | Nc1nc(N)c(Cc2ccc(Cl)cc2Cl)c(N)n1 [MLS000691890]
> 80 | c1ccc(-c2nc(NCCCn3ccnc3)c3ccccc3n2)cc1 [MLS001007021]
> 80 | O=c1cc(-c2cc3ccccc3o2)c2cc(O)ccc2o1 [MLS001167639]
> 80 | CCCCC(=O)Nc1ccc(C(=O)NNC(=O)c2ccc(C)c(Br)c2)cc1 [N-(4-{[2-(3-bromo-4-methylbenzoyl)hydrazino]carbonyl}phenyl)pentanamide]
> 80 | O=C(CCCOc1ccc(Cl)cc1Cl)NNC(=O)c1ccc(NC(=O)c2ccccc2)cc1 [N-[4-[[4-[2,4-bis(chloranyl)phenoxy]butanoylamino]carbamoyl]phenyl]benzamide]
> 80 | Fc1ccccc1-c1nc(NC2CCCC2)c2ccccc2n1 [N-cyclopentyl-2-(2-fluorophenyl)quinazolin-4-amine]
> 80 | Cc1ccc(-c2nc(NCc3cccnc3)c3ccccc3n2)cc1 [Pyridin-3-ylmethyl-(2-p-tolyl-quinazolin-4-yl)-amine]
> 80 | Clc1cccc(Cl)c1Cn1cnc(NCc2ccco2)c2ncnc1-2 [SMR000036870]
> 80 | c1ccc(-c2nc(NCCCN3CCOCC3)c3ccccc3n2)cc1 [SMR000071192]
> 80 | Cc1ccc(-c2nc(NCCN3CCOCC3)c3ccccc3n2)cc1 [SMR000108805]
> 80 | CC(C)Oc1ccc(-c2nc(NCC3CCCO3)c3ccccc3n2)cc1 (configuration not stated) [SMR000433802]
> 80 | c1ccc(-c2cc(NCCN3CCCCC3)c3ccccc3n2)cc1 [SMR000567889]
